Data taken from patent US8952163B2, “Substituted hydroxamic acids and uses thereof” (Millennium Pharmaceuticals, Inc., priority 2010, dated 2015).

These compounds were tested against T1, purified human HDAC6 (Homo sapiens, UniProt Q9UBN7) (assay: HDAC6 Enzyme Assay). Conditions: test compound at 1.235 μM; substrate Ac-Arg-Gly-Lys(Ac)-AMC, 1 hour at 30° C.; read-out: Percent Inhibition at 1.235 μM.
T1 construct: purchased BPS Bioscience 5006
T1 sequence (Q9UBN7 1-1215): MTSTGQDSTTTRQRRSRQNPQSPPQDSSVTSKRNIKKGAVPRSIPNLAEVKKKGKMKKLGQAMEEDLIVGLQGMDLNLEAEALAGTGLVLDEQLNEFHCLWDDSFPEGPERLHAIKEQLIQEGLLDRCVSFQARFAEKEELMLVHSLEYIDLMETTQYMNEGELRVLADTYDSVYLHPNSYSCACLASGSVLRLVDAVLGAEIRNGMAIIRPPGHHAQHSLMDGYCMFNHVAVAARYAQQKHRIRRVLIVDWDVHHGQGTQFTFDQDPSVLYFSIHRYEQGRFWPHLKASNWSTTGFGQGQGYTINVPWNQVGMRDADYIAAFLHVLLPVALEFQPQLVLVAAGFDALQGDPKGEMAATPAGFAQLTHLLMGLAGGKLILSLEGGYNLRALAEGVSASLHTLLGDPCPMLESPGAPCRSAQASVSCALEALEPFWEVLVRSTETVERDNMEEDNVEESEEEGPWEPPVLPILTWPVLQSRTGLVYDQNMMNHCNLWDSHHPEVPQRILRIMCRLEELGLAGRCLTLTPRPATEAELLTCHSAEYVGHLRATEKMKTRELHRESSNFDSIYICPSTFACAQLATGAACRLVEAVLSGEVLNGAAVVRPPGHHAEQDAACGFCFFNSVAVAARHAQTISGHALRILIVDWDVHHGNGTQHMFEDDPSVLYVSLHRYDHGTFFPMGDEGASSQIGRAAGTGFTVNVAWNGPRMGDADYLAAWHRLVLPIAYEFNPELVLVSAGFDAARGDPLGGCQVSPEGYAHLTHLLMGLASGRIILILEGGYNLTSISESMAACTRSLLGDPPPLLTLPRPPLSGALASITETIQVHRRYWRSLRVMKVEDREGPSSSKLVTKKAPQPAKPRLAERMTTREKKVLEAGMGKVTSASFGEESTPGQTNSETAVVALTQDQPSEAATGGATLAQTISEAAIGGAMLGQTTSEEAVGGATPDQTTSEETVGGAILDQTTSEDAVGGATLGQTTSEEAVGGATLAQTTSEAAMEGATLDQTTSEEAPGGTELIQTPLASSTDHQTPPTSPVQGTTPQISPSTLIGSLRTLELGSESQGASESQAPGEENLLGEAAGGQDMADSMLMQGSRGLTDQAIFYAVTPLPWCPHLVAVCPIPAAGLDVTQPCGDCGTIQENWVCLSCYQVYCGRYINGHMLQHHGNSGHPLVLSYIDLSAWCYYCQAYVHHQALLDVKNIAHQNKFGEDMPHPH
Format: biochemical
Protocol: To measure the inhibition of HDAC6 activity, purified human HDAC6 (BPS Bioscience; Cat. No. 5006) is incubated with substrate Ac-Arg-Gly-Lys(Ac)-AMC peptide (Bachem Biosciences; Cat. No. I-1925) for 1 hour at 30° C. in the presence of test compounds or vehicle DMSO control. The reaction is stopped with the HDAC inhibitor trichostatin A (Sigma; Cat. No. T8552) and the amount of Arg-Gly-Lys-AMC generated is quantitated by digestion with trypsin (Sigma; Cat. No. T1426) and subsequent measurement of the amount of AMC released using a fluorescent plate reader (Pherastar, BMG Technologies) set at Ex 340 nm and Em 460 nm. Concentration response curves are generated by calculating the fluorescence increase in test compound-treated samples relative to DMSO-treated controls, and percentage inhibition values at a single concentration or enzyme inhibition (IC50) values are determined from those curves. One skilled in the art will appreciate that the values generated either as percentage inhibition at a single concentration or IC50 values are subject to experimental variation.

inhibition at 1.235 µM | Compound
94.9% | O=C(NO)c1cnc2c(c1)CN(C(=O)c1cc3ccccc3o1)CC2 [Compound I-44, 6-(1-benzofuran-2-ylcarbonyl)-N-hydroxy-5,6,7,8-tetrahydro-1,6-naphthyridine-3-carboxamide]
97.4% | O=C(NO)c1cnc2c(c1)CN(C(=O)c1cc3ccccc3s1)CC2 [Compound I-52, 6-(1-benzothien-2-ylcarbonyl)-N-hydroxy-5,6,7,8-tetrahydro-1,6-naphthyridine-3-carboxamide]
93.8% | O=C(NO)c1cnc2c(c1)CN(C(=O)C13CC4CC(CC(C4)C1)C3)CC2 [Compound I-31, 6-[1-adamantylcarbonyl]-N-hydroxy-5,6,7,8-tetrahydro-1,6-naphthyridine-3-carboxamide]
94.5% | O=C(NO)c1cnc2c(c1)CN(C(=O)c1ccc(Cl)cc1)CC2 [Compound I-12, 6-(4-chlorobenzoyl)-N-hydroxy-5,6,7,8-tetrahydro-1,6-naphthyridine-3-carboxamide]
96.9% | O=C(NO)c1cnc2c(c1)CN(C(=O)c1ccc(-c3ccccc3)cc1)CC2 [Compound I-53, 6-(biphenyl-4-ylcarbonyl)-N-hydroxy-5,6,7,8-tetrahydro-1,6-naphthyridine-3-carboxamide]
87.8% | Cc1nc(C(=O)N2CCc3ncc(C(=O)NO)cc3C2)cs1 [Compound I-1, N-hydroxy-6-[(2-methyl-1,3-thiazol-4-yl)carbonyl]-5,6,7,8-tetrahydro-1,6-naphthyridine-3-carboxamide]
97.5% | O=C(NO)c1cnc2c(c1)CN(C(=O)c1ccc(-c3ccccn3)s1)CC2 [Compound I-42, N-hydroxy-6-[(5-pyridin-2-yl-2-thienyl)carbonyl]-5,6,7,8-tetrahydro-1,6-naphthyridine-3-carboxamide]
97.2% | O=C(NO)c1cnc2c(c1)CCN(C(=O)c1cc3ccccc3s1)C2 [Compound I-4, 7-(1-benzothien-2-ylcarbonyl)-N-hydroxy-5,6,7,8-tetrahydro-1,7-naphthyridine-3-carboxamide]
93.4% | CC(C)(C)c1ccc(C(=O)N2CCc3cc(C(=O)NO)cnc3C2)cc1 [Compound I-41, 7-(4-tert-butylbenzoyl)-N-hydroxy-5,6,7,8-tetrahydro-1,7-naphthyridine-3-carboxamide]
92% | Cc1nc(-c2ccccn2)sc1C(=O)N1CCc2ncc(C(=O)NO)cc2C1 [Compound I-23, N-hydroxy-6-[(4-methyl-2-pyridin-2-yl-1,3-thiazol-5-yl)carbonyl]-5,6,7,8-tetrahydro-1,6-naphthyridine-3-carboxamide]
93.4% | O=C(NO)c1cnc2c(c1)CN(C(=O)c1sc3ccccc3c1Cl)CC2 [Compound I-5, 6-[(3-chloro-1-benzothien-2-yl)carbonyl]-N-hydroxy-5,6,7,8-tetrahydro-1,6-naphthyridine-3-carboxamide]

The next lines start with the compound.

Compound | inhibition at 1.235 µM
O=C(NO)c1ccc2c(n1)CCN(C(=O)Nc1ccccc1)C2 [Compound I-51, N^2-hydroxy-N^6-phenyl-7,8-dihydro-1,6-naphthyridine-2,6(5H)-dicarboxamide] | 63.4%
O=C(NO)c1ccc2c(n1)CCN(C(=O)NCc1ccccc1)C2 [Compound I-25, N^6-benzyl-N^2-hydroxy-7,8-dihydro-1,6-naphthyridine-2,6(5H)-dicarboxamide] | 60.4%
CCCCS(=O)(=O)N1CCc2nc(C(=O)NO)ccc2C1 [Compound I-61, 6-(butylsulfonyl)-N-hydroxy-5,6,7,8-tetrahydro-1,6-naphthyridine-2-carboxamide] | -3.95%
O=C(NO)c1ccc2c(n1)CCN(C(=O)NC1CCCCC1)C2 [Compound I-17, N^6-cyclohexyl-N^2-hydroxy-7,8-dihydro-1,6-naphthyridine-2,6(5H)-dicarboxamide] | 41.2%
CCCCS(=O)(=O)N1CCc2ncc(C(=O)NO)cc2C1 [Compound I-58, 6-(butylsulfonyl)-N-hydroxy-5,6,7,8-tetrahydro-1,6-naphthyridine-3-carboxamide] | 94.5%
O=C(NO)c1cnc2c(c1)CCN(C(=O)C13CC4CC(CC(O)(C4)C1)C3)C2 [Compound I-26, N-hydroxy-7-[(3-hydroxy-1-adamantyl)carbonyl]-5,6,7,8-tetrahydro-1,7-naphthyridine-3-carboxamide] | 94%
O=C(NO)c1ccc2c(n1)CCN(S(=O)(=O)c1ccc(C(F)(F)F)cc1)C2 [Compound I-59, N-hydroxy-6-{[4-(trifluoromethyl)phenyl]sulfonyl}-5,6,7,8-tetrahydro-1,6-naphthyridine-2-carboxamide] | 67.4%
O=C(NO)c1ccc2c(n1)CCN(C(=O)NC13CC4CC(CC(C4)C1)C3)C2 [Compound I-13, N^6-[1-adamantyl]-N^2-hydroxy-7,8-dihydro-1,6-naphthyridine-2,6(5H)-dicarboxamide] | 70.6%
CCC(C)NC(=O)N1CCc2nc(C(=O)NO)ccc2C1 (centres unmarked) [Compound I-16, N^6-(sec-butyl)-N^2-hydroxy-7,8-dihydro-1,6-naphthyridine-2,6(5H)-dicarboxamide] | 27.3%
O=C(NO)c1ccc2c(n1)CCN(C(=O)c1ccc(Cl)cc1)C2 [Compound I-33, 6-(4-chlorobenzoyl)-N-hydroxy-5,6,7,8-tetrahydro-1,6-naphthyridine-2-carboxamide] | 68.8%
Cc1onc(-c2ccccc2)c1NC(=O)N1CCc2nc(C(=O)NO)ccc2C1 [Compound I-43, N^2-hydroxy-N^6-(5-methyl-3-phenylisoxazol-4-yl)-7,8-dihydro-1,6-naphthyridine-2,6(5H)-dicarboxamide] | 23.4%
O=C(NO)c1cnc2c(c1)CCN(C(=O)C13CC4CC(CC(C4)C1)C3)C2 [Compound I-15, 7-[1-adamantylcarbonyl]-N-hydroxy-5,6,7,8-tetrahydro-1,7-naphthyridine-3-carboxamide] | 95.6%
Cn1cccc1C(=O)N1CCc2nc(C(=O)NO)ccc2C1 [Compound I-11, N-hydroxy-6-[(1-methyl-1H-pyrrol-2-yl)carbonyl]-5,6,7,8-tetrahydro-1,6-naphthyridine-2-carboxamide] | 73.9%
O=C(NO)c1cnc2c(c1)CCN(C(=O)c1[nH]c3ccccc3c1-c1ccccc1)C2 [Compound I-37, N-hydroxy-7-[(3-phenyl-1H-indol-2-yl)carbonyl]-5,6,7,8-tetrahydro-1,7-naphthyridine-3-carboxamide] | 93.7%
CCCCOc1ccc(S(=O)(=O)N2CCc3nc(C(=O)NO)ccc3C2)cc1 [Compound I-60, 6-[(4-butoxyphenyl)sulfonyl]-N-hydroxy-5,6,7,8-tetrahydro-1,6-naphthyridine-2-carboxamide] | 75.8%
Cc1nc(-c2ccccn2)sc1C(=O)N1CCc2nc(C(=O)NO)ccc2C1 [Compound I-6, N-hydroxy-6-[(4-methyl-2-pyridin-2-yl-1,3-thiazol-5-yl)carbonyl]-5,6,7,8-tetrahydro-1,6-naphthyridine-2-carboxamide] | 81.4%
O=C(NO)c1cnc2c(c1)CN(C(=O)c1[nH]c3ccccc3c1-c1ccccc1)CC2 [Compound I-29, N-hydroxy-6-[(3-phenyl-1H-indol-2-yl)carbonyl]-5,6,7,8-tetrahydro-1,6-naphthyridine-3-carboxamide] | 97.8%
CC(C)(C)c1ccccc1NC(=O)N1CCc2nc(C(=O)NO)ccc2C1 [Compound I-40, N^6-(2-tert-butylphenyl)-N^2-hydroxy-7,8-dihydro-1,6-naphthyridine-2,6(5H)-dicarboxamide] | 50.4%
